Test results: publication PMC9134403 (ACS Omega, 2022)

Molecular target: mushroom tyrosinase (Agaricus bisporus, UniProt C7FF04)
Experiment: Kinetic analysis
Type: biochemical

Sequence of mushroom tyrosinase (C7FF04 1-392): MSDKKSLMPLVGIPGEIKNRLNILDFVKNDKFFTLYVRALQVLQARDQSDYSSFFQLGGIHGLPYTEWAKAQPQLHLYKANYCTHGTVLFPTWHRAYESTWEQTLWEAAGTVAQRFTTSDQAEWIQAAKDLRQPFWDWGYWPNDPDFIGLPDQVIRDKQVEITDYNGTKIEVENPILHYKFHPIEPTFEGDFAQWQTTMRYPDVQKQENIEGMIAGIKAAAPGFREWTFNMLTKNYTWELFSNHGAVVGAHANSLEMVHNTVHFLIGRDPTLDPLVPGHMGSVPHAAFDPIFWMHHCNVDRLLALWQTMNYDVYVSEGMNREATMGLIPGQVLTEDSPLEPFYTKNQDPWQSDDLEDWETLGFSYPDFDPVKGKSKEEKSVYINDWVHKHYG

SMILES: O=[N+]([O-])c1cccc(-c2oc3cc(Br)cc(Br)c3c(=S)c2O)c1 [2n, 5,7-Dibromo-3-hydroxy-2-(3-nitrophenyl)-4H-chromene-4-thione]
- Ki: 1.98 µM
- mode of inhibition (Lineweaver–Burk plot, Km increased, Vmax constant): competitive
